Data as given in patent publication US4533654A, “Urotensin peptides” (The Salk Institute For Biological Studies, priority 1984, dated 1985).
Like-named read-outs stand apart in the source and are kept apart here.

Experiments:
[1] = test system: mesenteric vascular bed; test: Blood pressure and mesenteric vasodilatation in the anaesthetized dog; type: in vivo; conditions: for potency of synthetic peptide versus extracted and purified peptide: anaesthetized dog in vivo; for dilatation of vascular beds other than mesenteric / effect on blood pressure: dog; for effect on blood pressure: appears due solely to dilatation of the mesenteric vascular bed; for accompanying decrease in blood pressure / increase in mesenteric flow: pentobarbital-anaesthetized dog, doses of 0.1-0.5 μg
Procedure: (§1) The urotensin peptides from Example II and III are examined for effects on the secretion of ACTH and β-endorphin in vitro and also examined in vivo. […] UI activity of the peptides was measured by the isolated rat hind limb assay, Lederis, K. et al. "Effects and Assay of Urotensin I on the Perfused Hind Limb of the Rat." Gen. Comp. Endocrinol., 24:10-16, 1974. In vivo hypotensive activity of extracted peptides was measured in anaesthetized rats, Lederis, K. and Medakovic, M. "Pharmacological Observations on the Hypotensive Action of Extracts of Teleost Fish Urophyses (Urotensin I) in the Rat." Br. J. Pharmacol. 51:315-324, 1974, and in anaesthetized dogs, MacCannell and Lederis, "Dilatation of the Mesenteric Vascular Bed of the Dog Produced by a Peptide, Urotensin I." J. Pharm. Exp. Ther. 203:38-46, 1977.
(§2) In the pentobarbital-anaesthetized dog, the threshold dose of UI for mesenteric vasodilatation, when given close arterially into the cephalic mesenteric A, is between 0.001 and 0.01 μg for both carp UI (1-41) and for the 4-41 fragment of carp UI. Doses of 0.1-0.5 μg of both peptides produce a 50-150% increase in mesenteric flow; accompanying changes in blood pressure are very modest (about 10% decrease). […] Comp. Endocrinol. 45:446-452, 1981.

[2] = test system: blood pressure; test: In vivo hypotensive activity in anaesthetized rats; conditions: rat; vascular dilatation appears less selective
Procedure: as §1

[3] = Biological activity (test not specified)
[4] = Comparison of the two extracted and the two synthetic carp peptides (assay not specified); conditions: synthetic versus extracted peptide
Procedure: as §2

[5] = test system: ACTH and β-END-LI secretion; test: ACTH and β-END-LI secretion in vivo in several rat preparations
Procedure: as §1

[6] = test system: cultured rat pituitary cells; test: Secretion of ACTH and β-endorphin by cultured rat pituitary cells; type: cell-based; conditions: for stimulation of the secretion of ACTH and β-endorphin: in vitro
Procedure: as §1

[7] = test system: mesenteric vascular bed; test: Blood pressure and vascular dilatation in the monkey; type: in vivo; conditions: for effect on blood pressure: appears due solely to dilatation of the mesenteric vascular bed
[8] = test system: isolated mesenteric artery strips; test: Isolated mesenteric artery strips of the rat
[9] = test system: isolated rat hind limb; test: Isolated rat hind limb assay (UI activity)
Procedure: as §1, §2

[10] = test system: teleost fish pituitaries; test: Secretion of ACTH by teleost fish pituitaries
Procedure: as §1

[11] = test system: blood pressure; test: Lowering of blood pressure (summary statement, species not stated); type: in vivo
[12] = test system: secretion of ACTH and β-endorphin; conditions: reported in the literature; cited from earlier work
[13] = test system: blood pressure; conditions: mammals; reported in the literature; cited from earlier work

| Compound | potency of synthetic peptide versus extracted and purified peptide [1] | dilatation of vascular beds other than mesenteric [1] | effect on blood pressure [1] | accompanying decrease in blood pressure [1] | increase in mesenteric flow [1] | effect on blood pressure [2] | activity of synthetic peptide as % of the activity of the respective extracted carp UI peptide [4] [%] | potency to stimulate ACTH and β-endorphin secretion relative to amunine (CRF) [6] | dilatation of vascular beds other than mesenteric [7] | effect on blood pressure [7] | potency of synthetic peptide versus extracted and purified peptide [8] | potency of synthetic peptide versus extracted and purified peptide [9] | potency relative to amunine in stimulating the secretion of ACTH [10] | also measured |
| --- | --- | --- | --- | --- | --- | --- | --- | --- | --- | --- | --- | --- | --- | --- |
| H-PPISIDLTFHLLRNMIEMARNENQREQAGLNRKYLDEV-NH2 [UI 4-41] | equipotent with the extracted and purified peptides | neither peptide dilates other vascular beds | modest but sustained depression of the blood pressure | about 10% | 50-150% | more marked fall in blood pressure | 123±58 | comparable to amunine (CRF) | neither peptide dilates other vascular beds | modest but sustained depression of the blood pressure | equipotent with the extracted and purified peptides | equipotent with the extracted and purified peptides | several times more potent than amunine | biological activity [3]: substantially the same biological activity as the 41-residue polypeptide; stimulation of ACTH and β-END-LI secretion in vivo [5]: stimulate ACTH and β-END-LI secretion in vivo; stimulation of the secretion of ACTH and β-endorphin [6]: high potency |
| H-NDDPPISIDLTFHLLRNMIEMARNENQREQAGLNRKYLDEV-NH2 [carp UI (1-41)] | equipotent with the extracted and purified peptides | neither peptide dilates other vascular beds | modest but sustained depression of the blood pressure | about 10% | 50-150% | more marked fall in blood pressure | 119±19 | comparable to amunine (CRF) | neither peptide dilates other vascular beds | modest but sustained depression of the blood pressure | equipotent with the extracted and purified peptides | equipotent with the extracted and purified peptides | several times more potent than amunine | lowering of blood pressure [11]: lower blood pressure for an extended time period; stimulation of ACTH and β-END-LI secretion in vivo ([5]; listed as UI): stimulate ACTH and β-endorphin activities in vitro and in vivo; stimulation of ACTH and β-END-LI secretion in vivo ([5]; listed as urotensin I): stimulate ACTH and β-END-LI secretion in vivo; stimulation of the secretion of ACTH and β-endorphin ([6]; listed as UI): stimulate ACTH and β-endorphin activities in vitro; stimulation of the secretion of ACTH and β-endorphin ([6]; listed as urotensin I): high potency |
| CC[C@H](C)[C@H](NC(=O)[C@@H](NC(=O)[C@H](CC(=O)O)NC(=O)[C@H](CC(C)C)NC(=O)[C@H](CC(C)C)NC(=O)[C@H](CC(C)C)NC(=O)[C@H](CCCNC(=N)N)NC(=O)[C@H](CC(N)=O)NC(=O)[C@H](CC(N)=O)NC(=O)[C@H](C)NC(=O)[C@H](C)NC(=O)[C@H](CCC(N)=O)NC(=O)[C@H](CCC(N)=O)NC(=O)[C@H](CCCCN)NC(=O)[C@H](CCC(=O)O)NC(=O)[C@H](CCCCN)NC(=O)[C@H](CCC(=O)O)NC(=O)[C@H](CCC(N)=O)NC(=O)[C@H](CCCCN)NC(=O)[C@H](CCC(=O)O)NC(=O)[C@@H](NC(=O)[C@H](CCC(=O)O)NC(=O)[C@@H](NC(=O)[C@H](CCSC)NC(=O)[C@H](CCCCN)NC(=O)[C@H](CCCNC(=N)N)NC(=O)[C@H](CC(C)C)NC(=O)[C@H](CC(C)C)NC(=O)[C@H](CCC(=O)O)NC(=O)[C@H](CC(C)C)NC(=O)[C@H](CO)NC(=O)[C@H](CC(C)C)NC(=O)[C@H](CC(=O)O)NC(=O)[C@@H](NC(=O)[C@H](CO)NC(=O)[C@@H](NC(=O)[C@@H]1CCCN1C(=O)[C@@H]1CCCN1C(=O)CNC(=O)[C@@H]1CCC(=O)N1)[C@@H](C)CC)[C@@H](C)CC)[C@@H](C)CC)[C@@H](C)CC)[C@@H](C)O)C(N)=O [Sauvagine] | – | – | – | – | – | – | – | – | – | – | – | – | – | stimulating the secretion of ACTH and β-endorphin [12]: stimulating the secretion of ACTH and β-endorphin; lowering blood pressure [13]: biological activity in lowering blood pressure in mammals |
